For orientation: EC50 means the midpoint of the concentration-response curve. A lower EC50 goes with greater potency.

Where a name gives a salt, the structure may show the parent alone.

One experiment has as its target T1, Human MC1R (Homo sapiens, UniProt Q01726).
T1 construct: endogenous in cells; host or cells: human melanoma cell line HBL
The experiment is described as follows: Human MC1R agonistic activity measurement (cAMP assay) using human melanoma cell line HBL. Format: cell-based. Particulars: HBL cells; for Emax: 0.5 h, Intrinsic Activity, vehicle cAMP = 0%, αMSH at 10^-6 M = 100%, read-out: Human MC1R IA %; for EC50: intracellular cAMP, 37° C. for 30 minutes. On the procedure:
(1) Method for Culturing Cells
Human MC1R agonistic activity measurement was carried out by using human melanoma cell line HBL. Culture of HBL: F-10 Nutrient Mixture comprising 10% FCS and Penicillin-streptomycin was used in the culture.
(2) cAMP Assay and Data Calculation
Each compound solution having each concentration was mixed with a cAMP assay buffer (HBSS (Hank's Balanced Salt Solution) comprising 10 mM HEPES and 0.1% BSA), and dispensed into a 96 well plate. HBL was suspended into a cAMP assay buffer comprising 0.5 mM IBMX so that the concentration became 5×10^4/mL, and the resulting suspension was dispensed into the above 96 well plate, then mixed, and left to stand at 37° C. for 30 minutes, and then the intracellular cAMP concentration was measured by a fluorescence method using Envision (ex. 320 nm, em. 590 nm and 665 nm). Each ratio value (665 nm measurement value/590 nm measurement value×10,000) was calculated from the resulting data, and the quantitative value of each cAMP concentration was calculated by using Prism 5.02, and induction % value (% of each sample when the average concentration value of cAMP of vehicle was set to be 0% and the average concentration value of cAMP of αMSH at 10^−6 M was set to be 100%) was calculated, and EC50 value and Intrinsic Activity (IA) % value were calculated.
A general note: cAMP levels reflect the balance of adenylyl cyclase and phosphodiesterase activity.

In a further experiment the target is human MC4R (Homo sapiens, UniProt P32245). The experiment in a line: human MC4R agonistic activity. Format: cell-based.
Sequence of human MC4R (P32245 whole entry): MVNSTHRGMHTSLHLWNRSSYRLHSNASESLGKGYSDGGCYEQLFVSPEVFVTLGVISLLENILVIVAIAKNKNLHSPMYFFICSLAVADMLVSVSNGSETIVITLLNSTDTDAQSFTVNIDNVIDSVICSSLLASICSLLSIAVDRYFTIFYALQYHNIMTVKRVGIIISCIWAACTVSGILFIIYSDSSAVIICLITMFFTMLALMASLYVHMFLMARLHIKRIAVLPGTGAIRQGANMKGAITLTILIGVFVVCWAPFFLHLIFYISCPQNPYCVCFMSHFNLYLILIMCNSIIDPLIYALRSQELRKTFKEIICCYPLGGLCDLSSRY

T1 sequence (Q01726 whole entry): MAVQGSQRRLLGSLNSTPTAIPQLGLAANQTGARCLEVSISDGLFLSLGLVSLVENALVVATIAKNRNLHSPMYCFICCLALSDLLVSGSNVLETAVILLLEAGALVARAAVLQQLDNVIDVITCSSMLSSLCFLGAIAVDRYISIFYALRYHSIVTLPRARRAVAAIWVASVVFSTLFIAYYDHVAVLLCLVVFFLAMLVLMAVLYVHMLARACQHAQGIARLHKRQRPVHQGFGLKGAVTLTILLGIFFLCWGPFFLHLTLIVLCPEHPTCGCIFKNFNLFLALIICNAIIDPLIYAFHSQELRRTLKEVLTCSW

`Cc1ccc(Cn2ccnc2NC(=O)[C@@H]2CN(C(C)(C)C)C[C@H]2c2ccc(F)cc2F)c(N2CCC(C(=O)NS(=O)(=O)N(C)C)CC2)c1` [Example 85, 1-(2-{[2-({[(3S,4R)-1-tert-butyl-4-(2,4-difluorophenyl)pyrrolidin-3-yl]carbonyl}amino)-1H-imidazol-1-yl]methyl}-5-methylphenyl)-N-(dimethylsulfamoyl)piperidine-4-carboxamide trihydrochloride]: at Human MC1R, the Emax is 98% and it took 16 nM to reach a half-maximal effect (EC50).

Turning to `CC(C)(C)N1C[C@@H](c2ccc(F)cn2)[C@](F)(C(=O)Nc2nccn2Cc2ccc(C(F)(F)F)nc2N2CCOCC2)C1` [Example 80], at Human MC1R, the Emax stood at 76% and the EC50 is 68 nM.

As for `COc1ccc([C@@H]2CN(C(C)(C)C)C[C@@]2(F)C(=O)Nc2nccn2Cc2ccc(C(C)C)cc2N2CCC(C(=O)O)CC2)cc1` [Example 54, 1-[2-{[2-({[(3R,4R)-1-tert-butyl-3-fluoro-4-(4-methoxyphenyl)pyrrolidin-3-yl]carbonyl}amino)-1H-imidazol-1-yl]methyl}-5-(propan-2-yl)phenyl]piperidine-4-carboxylic acid], on Human MC1R, the Emax worked out at 109% and the EC50 worked out at 2.8 nM.

For `CC(C)(C)N1C[C@@H](c2ccc(F)cc2)[C@](F)(C(=O)Nc2nccn2Cc2ccc(C(F)(F)F)cc2N2CCC(C(=O)O)CC2)C1` [Example 43, 1-[2-{[2-({[(3R,4R)-1-tert-butyl-3-fluoro-4-(4-fluorophenyl)pyrrolidin-3-yl]carbonyl}amino)-1H-imidazol-1-yl]methyl}-5-(trifluoromethyl)phenyl]piperidine-4-carboxylic acid], on Human MC1R, the Emax is 108% and the EC50 was determined as 6 nM.

Take `COc1ccc([C@@H]2CN(C(C)(C)C)C[C@@]2(F)C(=O)Nc2nccn2Cc2ccc(C(F)(F)F)cc2N2CCC(C(=O)O)CC2)cc1` [Example 52, 1-[2-{[2-({[(3R,4R)-1-tert-butyl-3-fluoro-4-(4-methoxyphenyl)pyrrolidin-3-yl]carbonyl}amino)-1H-imidazol-1-yl]methyl}-5-(trifluoromethyl)phenyl]piperidine-4-carboxylic acid]: at Human MC1R, the Emax came to 118% and the EC50 is 1.6 nM.

As for `COC(C)(C)CCCN1C[C@@H](c2ccc(F)cc2F)[C@](F)(C(=O)Nc2nccn2Cc2ccc(C(F)(F)F)cc2N2CCC(C(=O)O)CC2)C1` [Example 19, 1-[2-{[2-({[(3R,4R)-4-(2,4-difluorophenyl)-3-fluoro-1-(4-methoxy-4-methylpentyl)pyrrolidin-3-yl]carbonyl}amino)-1H-imidazol-1-yl]methyl}-5-(trifluoromethyl)phenyl]piperidine-4-carboxylic acid], at Human MC1R, the Emax turned out to be 83% and the EC50 stood at 3.5 nM.

Take `Cc1ccc(Cn2ccnc2NC(=O)[C@@H]2CN(C3(C)CCN(CCO)CC3)C[C@H]2c2ccc(F)cc2F)c(N2CCOCC2)c1` [Example 64, (3S,4R)-4-(2,4-difluorophenyl)-1-[1-(2-hydroxyethyl)-4-methylpiperidin-4-yl]-N-{1-[4-methyl-2-(morpholin-4-yl)benzyl]-1H-imidazol-2-yl}pyrrolidine-3-carboxamide]: on Human MC1R, the Emax was 79% and the EC50 worked out at 2.3 nM.

Consider `CN(C)C(=O)CCCN1CC(c2ccc(F)cc2F)C(C(=O)Nc2nccn2Cc2ccc(C(F)(F)F)cc2N2CCC(C(=O)O)CC2)(C(F)(F)F)C1` (stereo not drawn) [Example 28], for which, at Human MC1R, the Emax is 91% and the EC50 was 25 nM.

On to `Cc1ccc(Cn2ccnc2NC(=O)[C@@H]2CN(c3ccnc(C)c3)C[C@H]2c2ccc(F)cc2F)c(N2CCOCC2)c1` [Example 72], for which, at Human MC1R, the Emax turned out to be 66% and the response was half-maximal at 20 nM (EC50).

For the compound `COC(C)(C)CCCN1C[C@@H](c2ccc(F)cc2F)[C@](F)(C(=O)Nc2nccn2Cc2ccc(C)cc2N2CCC(C(=O)O)CC2)C1` [Example 13, 1-(2-{[2-({[(3R,4R)-4-(2,4-difluorophenyl)-3-fluoro-1-(4-methoxy-4-methylpentyl)pyrrolidin-3-yl]carbonyl}amino)-1H-imidazol-1-yl]methyl}-5-methylphenyl)piperidine-4-carboxylic acid], on Human MC1R, the Emax amounted to 89% and the response was half-maximal at 22 nM (EC50).

Regarding `O=C(O)C1CCN(c2cc(C(F)(F)F)ccc2Cn2ccnc2NC(=O)[C@]2(F)CN(C3CCCC3)C[C@H]2c2ccc(F)cc2F)CC1` [Example 16, 1-[2-{[2-({[(3R,4R)-1-cyclopentyl-4-(2,4-difluorophenyl)-3-fluoropyrrolidin-3-yl]carbonyl}amino)-1H-imidazol-1-yl]methyl}-5-(trifluoromethyl)phenyl]piperidin-4-carboxylic acid], at Human MC1R, the Emax amounted to 88% and the EC50 was found to be 6.7 nM.

On to `O=C(O)C1CCN(c2cc(C(F)(F)F)ccc2Cn2ccnc2NC(=O)[C@]2(F)CN(CCCS(=O)(=O)N3CCCC3)C[C@H]2c2ccc(F)cc2F)CC1` [Example 26, 1-[2-({2-[({(3R,4R)-4-(2,4-difluorophenyl)-3-fluoro-1-[3-(pyrrolidin-1-ylsulfonyl)propyl]pyrrolidin-3-yl}carbonyl)amino]-1H-imidazol-1-yl}methyl)-5-(trifluoromethyl)phenyl]piperidine-4-carboxylic acid], for which, on Human MC1R, the Emax came to 97% and the midpoint of the response, the EC50, lay at 7.6 nM.

On to `Cc1ccc(Cn2ccnc2NC(=O)[C@@H]2CN(CC[C@H]3Cc4ccccc4CN3)C[C@H]2c2ccc(F)cc2F)c(N2CCC(C(=O)O)CC2)c1` [Example 32, 1-(2-{[2-({[(3S,4R)-4-(2,4-difluorophenyl)-1-{2-[(3R)-1,2,3,4-tetrahydroisoquinolin-3-yl]ethyl}pyrrolidin-3-yl]carbonyl}amino)-1H-imidazol-1-yl]methyl}-5-methylphenyl)piperidine-4-carboxylic acid tetrahydrochloride], for which the results for the EC50 on human MC4R and at Human MC1R were 557 nM and 2.8 nM, respectively.

`CC(C)c1ccc(Cn2ccnc2NC(=O)[C@]2(F)CN(C(C)(C)C)C[C@H]2c2ccc(F)cc2)c(N2CCC(C(=O)O)CC2)c1` [Example 49, 1-[2-{[2-({[(3R,4R)-1-tert-butyl-3-fluoro-4-(4-fluorophenyl)pyrrolidin-3-yl]carbonyl}amino)-1H-imidazol-1-yl]methyl}-5-(propan-2-yl)phenyl]piperidine-4-carboxylic acid]: on Human MC1R, the Emax was 96% and the EC50 was 2 nM.

Consider `CC(C)(C)N1C[C@@H](C(=O)Nc2nccn2CC2(N3CCOCC3)CCCCC2)[C@H](c2ccc(F)cc2F)C1` [Example 70], for which, on Human MC1R, the Emax was found to be 58% and the EC50 was 83 nM.
